Earlier results on one molecule are cited in patent US20120189694A1, “CO-PRECIPITATE COMPRISING A PHOSPHODIESTERASE-5 INHIBITOR (PDE-5-INHIBITOR) AND A […] COMPATIBLE CARRIER, PRODUCTION AND USE THEREOF” (ratiopharm GmbH, priority 2009, published 2012).

For data set [1] the following is noted: according to WO 01/08687.
For data set [2] the following is noted: in vivo.

Regarding `CN1CC(=O)N2[C@H](c3ccc4c(c3)OCO4)c3[nH]c4ccccc4c3C[C@@H]2C1=O` [tadalafil, (6R,12aR)-6-(1,3-benzodioxol-5-yl)-2-methyl-1,2,3,4,6,7,12,12a-octahydropyrazino[2′,1′:6,1]pyrido[3,4-b]indole-1,4-dione], in data set [1], the solubility in water entry is given as “about 2 μg/ml”. For the same molecule, the “time the action lasts” value in data set [2] is “up to 36 hours”.
